The target of this test is T1, soluble epoxide hydrolase (sEH) (Oryctolagus cuniculus, UniProt A0A5F9CRP6).
T1 construct: gene ADAM2
T1 sequence (A0A5F9CRP6 1-555): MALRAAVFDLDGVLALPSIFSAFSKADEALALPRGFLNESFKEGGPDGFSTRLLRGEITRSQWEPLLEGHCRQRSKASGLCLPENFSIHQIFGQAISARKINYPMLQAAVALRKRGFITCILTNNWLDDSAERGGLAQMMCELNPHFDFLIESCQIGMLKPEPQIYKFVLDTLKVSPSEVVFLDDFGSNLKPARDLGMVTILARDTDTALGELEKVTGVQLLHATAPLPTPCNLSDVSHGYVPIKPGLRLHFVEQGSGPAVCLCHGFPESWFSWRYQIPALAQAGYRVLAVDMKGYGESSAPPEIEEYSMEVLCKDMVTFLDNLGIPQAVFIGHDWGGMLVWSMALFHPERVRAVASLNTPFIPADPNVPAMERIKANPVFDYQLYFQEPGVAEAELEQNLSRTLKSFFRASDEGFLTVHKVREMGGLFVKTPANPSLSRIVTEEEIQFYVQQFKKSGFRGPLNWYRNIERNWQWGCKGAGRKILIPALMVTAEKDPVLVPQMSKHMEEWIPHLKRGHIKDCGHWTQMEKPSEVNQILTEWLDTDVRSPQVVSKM
Description: biochemical.

Among the data in publication PMC5218821 (Journal of ocular biology, 2016) are IC50 values, retold here.

In general, IC50 refers to the concentration that inhibits the measured activity by half. The low end stands for higher potency, the high end for lower potency.

Structures are written as SMILES.

`CS(=O)(=O)N1CCC(NC(=O)Nc2ccc(OC(F)(F)F)cc2)CC1` [UC1709, TUPS] yielded a half-inhibitory concentration (IC50) of 88 nM.
